In patent publication US9907760B2 (LIBRAGEN, priority 2010, dated 2018):
Marks after values point to notes of the source that are not given here.

What was measured:
Assay type in all cases: cell-based
normal human fibroblasts [1] = assay: Procollagen 1 production by normal human fibroblasts treated with supernatant of treated keratinocytes (EIA); conditions: supernatant on fibroblasts 48 hrs; for % stimulation (procollagen 1): vs Control
Experimental: This experiment was carried out according to the method described in example 3. Fibroblast supernatants, containing procollagen 1, were collected and assayed immediately for procollagen 1 by means of an EIA microtiter plate.
After 48 hours of treatment, NHF cell supernatants were collected and centrifuged.
Procollagen 1 was assayed in the cell supernatants by the method described in the Procollagen Type 1 C-peptide EIA kit (MK101, Takara). This is an EIA assay with spectrophotometric detection at 450 nm (Safire, Tecan).
Duplicate determinations were carried out for two wells whereas the third well was assayed only once.
Optical densities (OD) measured on each sample were plotted on a graph (specific standard curve in the kit). The procollagen 1 concentration was expressed in ng/ml.
As in example 3, the protein content was determined in the cell pellets of the supernatants for which procollagen 1 was assayed.
Thus, the final result was expressed as ng/ml of procollagen 1 per μg of protein. A mean value was calculated for wells treated with the same concentration of test product. This mean was compared with the mean of the control wells (Student t test−comparison of means, significant difference at 95% if p<0.05* and at 99% if p<0.01**).
The percent stimulation produced by the test products was determined by comparing the mean values of the control and treatment conditions: % Stimulation=(Treated−Control)/Control

[2] = tested on: hyaluronic acid CD44 receptor; assay: Expression of the hyaluronic acid CD44 receptor in human skin explants (immunolabeling)
Experimental: (§1) In particular, the following parameters were evaluated: • general skin morphology after staining with Masson trichrome, • acid glycosaminoglycan (GAG) content after alcian blue staining, • expression level of the hyaluronic acid CD44 receptor after immunolabeling of this receptor.
(§2) Thirty-three explants (approximately 10 mm in diameter) were taken from a person (P712AB36) undergoing abdominoplasty. The explants were divided into 11 groups of three explants and placed in special skin explant survival medium.
(§3) RetinOx+Day cream was applied on the explants at 1 mg/cm^2 on days D0, D2, D3, D6 and D8.
(§4) On D0, D2, D3, D6 and D8, 30 μA of products P1, P2 and P3 were deposited on filter paper disks placed on the explants.
(§5) On D0, the three explants in group CO were sampled and cut in two. One-half was fixed in ordinary Bouin's solution and the other half stored at −80° C. On D6 and D10, three explants from each group were sampled and treated in the same manner.
Frozen sections were labeled for the CD44 receptor using mouse anti-CD44 monoclonal antibody (Invitrogen MHC D4400) at 1:100 dilution incubated for 1 hour at room temperature with a biotin/streptavidin amplifier system with FITC. Nuclei were counterstained with propidium iodide.

[3] = tested on: normal human keratinocytes; assay: Hyaluronic acid production by normal human keratinocytes (HA-ELISA of supernatant); conditions: for % stimulation of hyaluronic acid synthesis: vs Control
Experimental: Normal human keratinocytes were cultured to confluence. Cells were treated with the test products for 48 hours. The supernatants, containing hyaluronic acid, were collected and assayed immediately. Hyaluronic acid was quantified with an ELISA microtiter plate.
Primocultures of normal human keratinocytes (NHK) were obtained from cells isolated from skin specimens from plastic surgery.
NHK were seeded at a density of 130,000 cells/well in specific KSFM culture medium (Gibco®, Invitrogen) in a 24-well plate. The plate was placed in a humid incubator (37° C., 5% CO2) for 24 hours.
The different products at the respective concentrations (diluted in KSFM medium, 600 μl) were contacted with the cells for 48 hours. Untreated cells were used as the control condition.
Each treatment condition was evaluated on three wells of NHK cells.
After 24 hours of treatment, an intermediate sample of […] of supernatant was removed from each well and the plate returned to the incubator (37° C., 5% CO2).
After 48 hours of treatment, the remaining supernatant (≈350 μA) was collected and centrifuged.
Cell supernatants were assayed according to the method described in the Hyaluronan Enzyme-Linked Immunosorbent Assay kit (HA-ELISA, Echelon Biosciences Inc.). This is an ELISA assay with spectrophotometric detection at 405 nm (Safire, Tecan).
The assay was performed in duplicate for each well.
Optical densities (OD) measured on each sample were plotted on a graph (specific standard curve in the kit). The hyaluronic acid concentration was expressed in ng/ml.
The amount of hyaluronic acid released by the cells was determined for each well and for each treatment condition, relative to the cell content expressed as μg of protein. Thus, the final result was expressed as ng/ml of hyaluronic acid per μg of protein.
A mean value was calculated for wells treated with the same concentration of test product. This mean was compared with the mean of the control wells (Student t test−comparison of means−significant difference at 95% if p<0.05* and at 99% if p<0.01*).
The percent stimulation induced by the test products was determined by comparing the mean values of the control and treatment conditions: % Stimulation=(Treated−Control)/Control
The vitamin A propionate was dissolved in DMSO.

normal human fibroblasts [4] = assay: Proliferation of normal human fibroblasts treated with supernatant of treated keratinocytes (Cell Proliferation ELISA, BrdU); conditions: supernatant on fibroblasts 48 hrs
Experimental: This experiment evaluated the proliferation of normal human fibroblasts (dermal primocultures) after 48 hours of treatment with supernatant transferred from human keratinocytes.
The “Cell Proliferation ELISA, BrdU” test quantifies cell proliferation by measuring incorporation of bromodeoxyuridine (BrdU) during DNA synthesis followed by luminescence detection.
Cells were placed in the presence of the treatment for a specified time (incubator at 37° C., 5% CO2). The pyrimidine analogue 5-bromo-2′-deoxyuridine (BrdU) was then added and the cells were further incubated (37° C., 5% CO2) for a minimum of 2 hours, during which time BrdU is incorporated in place of thymidine into the DNA of proliferating cells.
The culture medium was removed, then the cells were fixed and the DNA denatured at the same time (antibody accessibility). An anti-BrdU-POD (peroxidase) antibody was added; this antibody binds to BrdU in newly synthesized DNA. The immune complex was then detected by addition of luminol substrate with measurement of luminescence (Genios, Tecan).
Primocultures of normal human fibroblasts (NHF) were obtained from cells isolated from skin specimens from plastic surgery.
NHF were seeded at a density of 5,000 cells/well in E-199 culture medium (Gibco® Invitrogen) in a 96-well Optilux white plate (BD Falcon 353947). The plate was placed in a humid incubator (37° C., 5% CO2) for 24 hours.
The two cell types—NHK and NHF—were plated 48 hours apart.
The different products at the respective concentrations (diluted in KSFM culture medium, 600 μl) were contacted with NHK cells for 48 hours. Control cells were left untreated. Each treatment conditions was evaluated on three wells of NHK cells.
After 48 hours, a fraction of the NHK cell supernatant was removed. Each sample of supernatant (2 times 100 μl) from a well on the NHK plate (24 wells) was transferred to two wells in the NHF plate already containing 100 μl of E-199 medium per well. […]
Cell proliferation was quantified by the method described in the “Cell Proliferation ELISA, BrdU” kit (Roche Applied Science No. 11669915001). This is an immunological assay with luminescence detection (Genios, Tecan).
The means of the luminescence values (RLU/s) of six wells with the same treatment condition were determined. […] Proliferation of treated cells was expressed as a percentage of the control(untreated cells−100%)(OD treated/OD control×100).

human skin explants = assay: General morphology of living human skin explants (Masson trichrome)
Experimental: as §1, §2, §3, §4, §5
After 48 hours of fixing in ordinary Bouin's solution, samples were dried and impregnated in paraffin using a Leica 1020 automated tissue processor, then embedded according to operating procedure MO-H-153 using a Leica EG 1160 embedding station. 5 μm sections were prepared according to operating procedure MO-H-173 using a Leica RM 2125 Minot microtome and mounted on Superfrost® histologic glass microscope slides.
General morphology was studied on paraffin sections stained with Masson trichrome, Goldner variant, according to operating procedure MO-H-157.

Q: Which “Procollagen 1” value (normal human fibroblasts [1]; 5 mM on keratinocytes 48 hrs) does the source give for `CC(=O)N[C@H]1C(O)O[C@H](COP(=O)(O)O)[C@@H](O)[C@@H]1O` (some centres unmarked) [NAG6P, N-acetylglucosamine-6-phosphate] here?
A: The value was 653.4 ± 36.6 ng/mL.

Q: And the “Procollagen 1 (ng/ml/μg prot.)” value (normal human fibroblasts [1]; 5 mM on keratinocytes 48 hrs)?
A: Its value is 74.6 ± 5.3 ng/ml/μg prot.

Q: What about the “% stimulation (procollagen 1)” value (normal human fibroblasts [1]; 5 mM on keratinocytes 48 hrs) of the same compound?
A: The value was 2%.

Q: What about the “Procollagen 1” value (normal human fibroblasts [1]; 10 mM on keratinocytes 48 hrs) of the same compound?
A: The value was 677.7 ± 64.6 ng/mL.

Q: What about the “Procollagen 1 (ng/ml/μg prot.)” value (normal human fibroblasts [1]; 10 mM on keratinocytes 48 hrs) of the same compound?
A: The value was 72.7 ± 4.4 ng/ml/μg prot.

Q: And the “% stimulation (procollagen 1)” value (normal human fibroblasts [1]; 10 mM on keratinocytes 48 hrs)?
A: The value was −1%.

Q: What about the CD44 expression ([2]; D6, NAG6P 0.01%) of the same compound?
A: Its CD44 expression is “overexpression was very moderate”.

Q: What about the CD44 expression ([2]; D6, NAG6P 0.1%) of the same compound?
A: The CD44 expression was “mildly overexpressed”.

Q: What about the CD44 expression ([2]; D6, NAG6P 1%) of the same compound?
A: Its CD44 expression is “mildly overexpressed”.

Q: What about the CD44 expression ([2]; D10, NAG6P 0.01%, epidermis and papillary dermis) of the same compound?
A: Its CD44 expression is “overexpression was very clear”.

Q: What about the “Hyaluronic acid” value ([3]; 5 mM, 48 hrs) of the same compound?
A: The value was 1817.9 ± 145.1 ng/mL.

Q: And the “Hyaluronic acid (ng/ml/μg prot.)” value ([3]; 5 mM, 48 hrs)?
A: The value was 122.1 ± 25.6 ng/ml/μg prot.

Q: What about the “% stimulation of hyaluronic acid synthesis” value ([3]; 5 mM, 48 hrs) of the same compound?
A: Its value is 73%*.

Q: And the “Hyaluronic acid” value ([3]; 10 mM, 24 hrs)?
A: The value was 1067.3 ± 111.9 ng/mL.

Q: And the “% stimulation of hyaluronic acid synthesis” value ([3]; 10 mM, 24 hrs)?
A: Its value is 35%*.

Q: What about the “% stimulation of hyaluronic acid synthesis” value ([3]; 10 mM, 24 hrs, listed as N-acetylglucosamine-6-phosphate) of the same compound?
A: Its value is 35%.

Q: What about the “Hyaluronic acid” value ([3]; 10 mM, 48 hrs) of the same compound?
A: The value was 2503.2 ± 552.8 ng/mL.

Q: And the “Hyaluronic acid (ng/ml/μg prot.)” value ([3]; 10 mM, 48 hrs)?
A: Its value is 165.7 ± 32.4 ng/ml/μg prot.

Q: And the “% stimulation of hyaluronic acid synthesis” value ([3]; 10 mM, 48 hrs)?
A: The value was 135%**.

Q: What about the “% stimulation of hyaluronic acid synthesis” value ([3]; 10 mM, 48 hrs, listed as N-acetylglucosamine-6-phosphate) of the same compound?
A: Its value is 135%.

Q: What about the “Hyaluronic acid” value ([3]; 20 mM, 48 hrs) of the same compound?
A: Its value is 3076 ± 260.8 ng/mL.

Q: And the “Hyaluronic acid (ng/ml/μg prot.)” value ([3]; 20 mM, 48 hrs)?
A: Its value is 269.6 ± 55.3 ng/ml/μg prot.

Q: And the “% stimulation of hyaluronic acid synthesis” value ([3]; 20 mM, 48 hrs)?
A: The value was 282%**.

Q: And the “% stimulation of hyaluronic acid synthesis” value ([3]; 20 mM, 48 hrs, listed as N-acetylglucosamine-6-phosphate)?
A: Its value is 282%.

Q: What about the RLU (normal human fibroblasts [4]; 5 mM on keratinocytes 48 hrs) of the same compound?
A: Its RLU is 4985 ± 184 RLU.

Q: And the RLU (normal human fibroblasts [4]; 10 mM on keratinocytes 48 hrs)?
A: The RLU was 4903 ± 377 RLU.

Q: What about the General morphology (human skin explants; D10, NAG6P) of the same compound?
A: The General morphology was “considerable modifications of epidermal morphology”.

Q: And the General morphology (human skin explants; D10, NAG6P 0.01% (product P3))?
A: The General morphology was “clear reorganization/strengthening of the dermal-epidermal junction”.

Q: What about the General morphology (human skin explants; D10, NAG6P, listed as N-acetylglucosamine-6-phosphate) of the same compound?
A: The General morphology was “does not cause acanthosis”.
